# Assay results as given in patent publication US20020004611A1 (Cargill, Incorporated, priority 1997, published 2002).
# Legend:
# Format in all cases: physicochemical
# [1] = Back extraction of lactic acid from Alamine 336 into second polar liquid phase (Example 4)
# Protocol: Two solutions of lactic acid and […] 336 were made by contacting the […] […] The samples were held at the specified temperature in an oil bath for about 45 to 60 minutes with regular mixing. […] A similar procedure was used for contacting […] […] Phases were allowed to settle at specified temperature and then quickly separated by piping out the bottom phase. […] 336 concentrations. In all cases, the […] 336 phase was the least dense phase or the top phase. […] 336 concentrations in the top and bottom phases. […] In some of the solvents, there was a significant amount of […] 336 co-extracted into the polar liquid phase. Dimethyl sulfoxide looks like a favorable solvent for this type of process because of the good selectivity for the lactic acid over the […] 336.
# [2] = Single stage extraction of lactic acid from fermentation broth with different solvents (Example 20); conditions: broth pH 3.87
# Excerpt: Fermentation broth with a final pH value of 3.87 and a total lactate material concentration of 79 g/liter as determined by high performance liquid chromatography was obtained. A number of different solvents were contacted with the broth to determine the lactic acid recovery in a single stage. […] For the 100% Alamine 336 solvent, two organic phases were isolated and titrated and both values are reported. The partition coefficient is not reported for this system.
# [3] = Three successive contacts of fermentation broth with fresh extracting solvent (Example 21); conditions: 89 wt % Alamine 336, 9 wt % dodecanol, 2 wt % IsoPar K; for Lactic Acid Aqueous Phase wt % / Lactic Acid Organic Phase wt %: aqueous to organic phase ratio 3.0
# Excerpt: Fermentation broth with a final pH of 3.87 and a total lactate material concentration of 79 g/liter as determined by high performance liquid chromatography was obtained.
# [4] = Chiral purity of lactic acid after heating during triethylamine evaporation (Example 5)
# Protocol: The back extraction was scaled up to allow the distillation experiment. […] The triethylamine evaporated initially at 23° C. and 10 mm Hg. […] About 69% of the triethylamine evaporated out. […].
# The remaining mixture was heated to 110° C. where it was held for 80 minutes. At this point, 96% of the triethylamine was evaporated.
# [5] = solvent 30 wt % TOPO, 70 wt % MIBK
# [6] = solvent 82 wt % A336, 10 wt % OctOH, 8 wt % IPK
# [7] = solvent 89 wt % A336, 9 wt % DodecOH, 2 wt % IPK
smiles,measurement,setting,value
"CC(O)C(=O)O (stereo not drawn) [lactic acid, 2-hydroxypropionic acid]","Partition Coefficient (lactic acid, Alamine 336 top phase / bottom polar liquid phase)","[1]; solvent Lactide, 140 °C",0.82
same,Lactic acid Wt %,"[1]; solvent Lactide, 140 °C, Bottom phase, calculated from overall mass balance",2.98^2 Wt %
same,Lactic acid Wt %,"[1]; solvent Lactide, 140 °C, Top (Alamine 336) phase",2.44 Wt %
same,"Partition Coefficient (lactic acid, Alamine 336 top phase / bottom polar liquid phase)","[1]; solvent NMP, 90 °C",0.29
same,Lactic acid Wt %,"[1]; solvent NMP, 90 °C, Bottom (polar liquid) phase",1.13 Wt %
same,Lactic acid Wt %,"[1]; solvent NMP, 90 °C, Top (Alamine 336) phase",0.33 Wt %
same,"Partition Coefficient (lactic acid, Alamine 336 top phase / bottom polar liquid phase)","[1]; solvent NMP, 110 °C",0.22
same,Lactic acid Wt %,"[1]; solvent NMP, 110 °C, Bottom (polar liquid) phase",12.2 Wt %
same,Lactic acid Wt %,"[1]; solvent NMP, 110 °C, Top (Alamine 336) phase",2.73 Wt %
same,Lactic Acid Aqueous Phase wt %,[2]; [5],2.24 wt %
same,Lactic Acid Organic Phase wt %,[2]; [5],2.36 wt %
same,Partition Coefficient,[2]; [5],1.05
same,Lactic Acid Aqueous Phase wt %,[2]; [6],1.52 wt %
same,Lactic Acid Organic Phase wt %,[2]; [6],5.09 wt %
same,Partition Coefficient,[2]; [6],3.35
same,Lactic Acid Aqueous Phase wt %,[2]; [7],4.76 wt %
same,Lactic Acid Organic Phase wt %,[2]; [7],1.84 wt %
same,Partition Coefficient,[2]; [7],2.6
same,Lactic Acid Aqueous Phase wt %,[2]; solvent 100% A336,2.34 wt %
same,Partition Coefficient,[3]; Stage 1,2.5
same,Lactic Acid Aqueous Phase wt %,[3]; Stage 1,1.55 wt %
same,Lactic Acid Organic Phase wt %,[3]; Stage 1,3.9 wt %
same,Partition Coefficient,[3]; Stage 2,1.25
same,Lactic Acid Aqueous Phase wt %,[3]; Stage 2,1.09 wt %
same,Lactic Acid Organic Phase wt %,[3]; Stage 2,1.36 wt %
same,Partition Coefficient,[3]; Stage 3,0.84
same,Lactic Acid Aqueous Phase wt %,[3]; Stage 3,0.88 wt %
same,Lactic Acid Organic Phase wt %,[3]; Stage 3,0.74 wt %
same,chiral purity after heating,"[4]; 21.5 wt % lactic acid in triethylamine and N-methyl-2-pyrrolidinone, 55° C. 10 mm Hg two hours, then 110° C. 80 minutes",not significantly changed
same,chiral purity of the lactic acid after heating,"[4]; 43 wt % lactic acid in triethylamine, 10 mm Hg, heated to 120° C., held 90 minutes",not changed significantly
